Data from patent EP3901142A1, “PYRAZOLYLBENZENE-1,3-DIOLS FOR DISEASES ASSOCIATED WITH G PROTEIN-COUPLED RECEPTOR 18 AND IN COMBINATION WITH TRANSIENT RECEPTOR POTENTIAL VANILLOID 1” (Consejo Superior de Investigaciones Científicas (CSIC), priority 2020, dated 2021).

Biological target: TRPV1 (Homo sapiens, UniProt Q8NER1)
Experiment: Calcium imaging (Fura-2 AM) in TRPV1-expressing cells
Assay type: cell-based
Settings: 5 µM; TPRV1-expressing cells
Procedure: Cell Culture. A plasmid containing GPR18 (NM_005292) was obtained from Origene (Rockville, MD) and engineered with an N-terminal GFP-tag. The resulting plasmid was used to transfect CHO-K1 cells using Lipofectamine 2000 (Invitrogen, Carlsbad CA). Clonal cells were selected in medium containing G418 (Geneticin, 800 µg/ml; Enzo Life Sciences, Farmingdale, NY). Two weeks after transfection, clones were isolated and expression was verified by fluorescence microscopy of GFP-tagged receptors. The resulting stable cell line was cultured in DMEM with 10% fetal bovine serum at 37°C, 5% CO2 and passaged every 2-3 days. […] Two weeks after transfection, clones were isolated and expression was verified by fluorescence microscopy of HA-tagged receptors. […] Intracellular calcium levels were determined by measuring fluorescence emissions from Fura-2 AM (510 nm) after alternating excitation at 340 and 380 nm at 0.25 Hz for 5 min. Images were analyzed in the NIS-Elements AR software (Nikon), and the fluorescence ratio at 340nm/380nm was converted to Ca^2+ concentrations.

Sequence of TRPV1 (Q8NER1 whole entry): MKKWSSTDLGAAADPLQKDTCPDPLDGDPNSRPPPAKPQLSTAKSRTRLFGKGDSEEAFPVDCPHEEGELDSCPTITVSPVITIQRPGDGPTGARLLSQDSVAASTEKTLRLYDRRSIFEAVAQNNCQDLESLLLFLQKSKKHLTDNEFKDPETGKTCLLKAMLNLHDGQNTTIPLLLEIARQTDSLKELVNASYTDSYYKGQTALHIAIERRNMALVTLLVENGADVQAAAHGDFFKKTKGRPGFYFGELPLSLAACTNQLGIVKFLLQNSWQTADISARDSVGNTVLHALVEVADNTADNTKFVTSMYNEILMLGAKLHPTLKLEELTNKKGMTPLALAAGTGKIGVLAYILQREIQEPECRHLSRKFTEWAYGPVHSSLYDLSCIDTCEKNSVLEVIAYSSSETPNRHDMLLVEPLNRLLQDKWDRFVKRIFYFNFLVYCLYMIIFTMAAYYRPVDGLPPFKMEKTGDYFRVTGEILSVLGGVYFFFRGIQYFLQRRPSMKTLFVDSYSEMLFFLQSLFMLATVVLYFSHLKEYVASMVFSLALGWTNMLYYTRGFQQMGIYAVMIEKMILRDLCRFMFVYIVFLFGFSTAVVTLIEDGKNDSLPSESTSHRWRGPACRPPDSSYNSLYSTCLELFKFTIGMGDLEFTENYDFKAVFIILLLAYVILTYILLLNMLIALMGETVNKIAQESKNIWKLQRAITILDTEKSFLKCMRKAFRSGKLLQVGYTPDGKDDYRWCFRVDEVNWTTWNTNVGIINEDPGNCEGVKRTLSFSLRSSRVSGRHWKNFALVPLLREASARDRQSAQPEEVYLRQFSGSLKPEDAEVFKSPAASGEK

CCCCC/C=C\C/C=C\C/C=C\C/C=C\CCCC(=O)NCCO [Anandamide]
effect on intracellular calcium (Ca^2+): increases intracellular calcium (Ca^2+)
